Measurements reported in publication PMC7669657 (Nature chemical biology, 2020).

What was measured:
NSD1 SET domain [1] = biological target: T1, NSD1 SET domain (Homo sapiens, UniProt Q96L73); assay: MS covalent engagement and kinetics, NSD1 SET; assay type: binding; conditions: 1 μM NSD1 SET, 50 μM compound, 18 h, 32 °C
T1 sequence (Q96L73 1852-2105): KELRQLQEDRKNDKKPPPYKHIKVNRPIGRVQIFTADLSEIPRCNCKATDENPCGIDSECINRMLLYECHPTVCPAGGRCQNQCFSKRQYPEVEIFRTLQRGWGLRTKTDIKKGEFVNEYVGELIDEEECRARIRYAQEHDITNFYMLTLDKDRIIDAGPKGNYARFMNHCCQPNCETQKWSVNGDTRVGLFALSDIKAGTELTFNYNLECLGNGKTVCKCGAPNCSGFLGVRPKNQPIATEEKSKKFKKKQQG

NSD1 SET domain [2] = biological target: T2, NSD1 SET domain (Homo sapiens, UniProt Q96L73); assay type: binding; conditions: 150 μM 15N NSD1 SET, 1H-15N HSQC
T2 sequence (Q96L73 1852-2085): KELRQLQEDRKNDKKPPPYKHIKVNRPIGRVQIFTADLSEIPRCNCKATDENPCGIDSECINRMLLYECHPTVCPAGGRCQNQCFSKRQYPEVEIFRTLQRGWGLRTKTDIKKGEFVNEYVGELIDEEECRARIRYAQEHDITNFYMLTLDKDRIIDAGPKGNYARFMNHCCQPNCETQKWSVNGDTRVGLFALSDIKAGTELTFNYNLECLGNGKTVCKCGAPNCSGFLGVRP

SMILES	covalent binding by MS (NSD1 SET domain [1])	chemical shift perturbations / binding by NMR (NSD1 SET domain [2])
NC(=O)/C=C/c1cc(O)c2nc(N)sc2c1 [Compound 9]	lack covalent binding	only weakly interact
COc1cc(Br)cc2sc(N)nc12 [Compound 8]	–	less pronounced chemical shift perturbations
